Experimental data reported in PMC12679848, “Sulphonamide derivatives with a triazine core as novel inducers of apoptosis and pyroptosis in glioblastoma multiforme cells” (Journal of Enzyme Inhibition and Medicinal Chemistry, 2025).

Key:
[1] = tested on: A172; test: Mitochondrial membrane potential (JC-1), A172; type: cell-based, human; conditions: A172, 1.5 μM, 24 h
Method: The impact of the novel compounds on mitochondrial membrane potential (ΔΨm) was examined. […] In this study, the fluorochrome JC-1 was employed, which, in cells with normally functioning mitochondria, aggregates and accumulates in the hyperpolarized mitochondrial membrane, emitting a red colour. Conversely, when the membrane is damaged, JC-1 breaks down into monomers, emitting green fluorescence. […] For the U-87 MG cell line, these parameters were equal to 54.88 ± 8.36% and 56.13 ± 13.97% of the cell population.
JC-1 (1,1′,3,3′-Tetraethyl-5,5′,6,6′-tetrachloroimidacarbocyanine iodide) (BD Biosciences, San Diego, CA, USA), a lipophilic fluorochrome, was used to evaluate changes in mitochondrial membrane potential. After treatment, cancer cells at a concentration of 1 × 10^6 cells/mL were collected and rinsed twice with PBS. Then, 500 μL JC-1 working solution was added to each sample according to the manufacturer’s protocol. The samples were then incubated for 15 min at 37 °C in a CO2 incubator. After incubation, samples were washed twice with an assay buffer, and 500 μL of each sample was transferred to a BD FACSCanto II flow cytometer (Becton Dickinson Biosciences, San Jose, CA, USA) for analysis, with 10,000 events recorded per sample. Data were analysed using FACSDiva software version 6.1.3 (BD Biosciences Systems, San Jose, CA, USA).

[2] = tested on: caspase 9; test: Caspase 9 activation (FAM FLICA), U-87 MG; type: cell-based, human; conditions: 1.5 μM, 24 h
Method: (§1) The activity of caspase 1, caspase 3/7, caspase 8, and caspase 9 was evaluated through the utilisation of FAM FLICA Caspase Assays (ImmunoChemistry Technologies, Bloomington, MN, USA), in accordance with the established protocols. Following treatment with the compounds, the cells were collected at a concentration of 1 × 10^6 cells/mL, washed twice with cold PBS, and resuspended in 290 μL of PBS. The subsequent step involved the addition of 10 μL of 30X FLICA solution, followed by incubation at 37 °C in the absence of light for one hour. Then, 2 ml of Apoptosis Wash Buffer was added, and the samples were washed twice. A 300 μL aliquot of each sample was transferred to a BD FACSCanto II flow cytometer (Becton Dickinson Biosciences, San Jose, CA, USA), where 10,000 events per sample were recorded. The resulting data was then analysed using FACSDiva software, version 6.1.3 (BD Biosciences Systems, San Jose, CA, USA).

[3] = tested on: caspase 3/7; test: Caspase 3/7 activation (FAM FLICA), U-87 MG; type: cell-based, human; conditions: 1.5 μM, 24 h
Method: as §1

[4] = tested on: A172; test: Annexin V-FITC/PI apoptosis analysis, A172; type: cell-based, human; conditions: A172, 1.5 μM, 24 h
Method: (§2) The level of apoptosis induction of the newly synthesised compounds MM118 and MM119 was determined using double staining with Annexin V-FITC and propidium iodide (AV/PI). This method enables the differentiation of four cell populations based on their state: viable cells, necrotic cells, cells in early apoptosis, and late apoptosis. The compounds were analysed on A172 and U-87 MG human glioblastoma multiforme cell lines using concentrations of 1 μM and 1.5 μM over a 24-h exposure period.
(§3) The impact of apoptosis induction by the tested compounds at concentrations of 1 μM and 1.5 μM, as well as by temozolomide at 1.5 μM, was evaluated through annexin V-FITC and propidium iodide (PI) staining with the Apoptosis Detection Kit II (BD Biosciences, San Diego, CA, USA). The glioblastoma cell lines A172 and U-87 MG were then deprived of medium and washed several times with cold phosphate-buffered saline (PBS) solution. The cell suspension was then prepared in the binding buffer provided in the kit at a concentration of 1 × 10^6 cells/mL. From each sample, 100 μL of the cell suspension was transferred to tubes and subsequently treated with 5 μL of Annexin V-FITC and 5 μL of propidium iodide (PI). The tubes were then incubated for 15 min at room temperature in the dark. Following the incubation period, 400 μL of binding buffer was added to each sample, after which the samples were immediately analysed using a BD FACSCanto II flow cytometer (Becton Dickinson Biosciences, San Jose, CA, USA), with 10,000 events recorded per sample. The results were then analysed using FACSDiva Software Version 6.1.3 (BD Biosciences Systems, San Jose, CA, USA).

[5] = Annexin V-FITC/PI apoptosis analysis, A172; type: cell-based, human; conditions: human, A172 cells, read-out: Viable cells; for viability at 24 h, 1 µM: A172, 1.0 μM; for viability at 24 h, 1.5 µM: A172, 1.5 μM
Method: as §2, §3

[6] = tested on: NF-κB; test: NF-kB staining (immunofluorescence, confocal); type: cell-based; conditions: 1.5 μM, 24 h of treatment
Method: Location of NF-kB was evaluated by immunofluorescence staining. Cells were cultured on sterile coverslips placed in 6-well plates and treated with compounds MM118, MM119, and TMZ at a concentration of 1.5 μM. After 24 h of treatment, cells were fixed with 4% paraformaldehyde for 15 min at room temperature, then permeabilized with 0.1% Triton X-100 in PBS for 10 min. Following permeabilization, cells were blocked with 2% BSA (bovine serum albumin; Cell Signalling Technology, Danvers, MA, USA) in PBS for 30 min to prevent non-specific binding. Subsequently, cells were incubated overnight at 4 °C with a NF-KB antibody directly conjugated with Alexa Fluor 647 (#D14E12; Cell Signalling Technology, Danvers, MA, USA). The next day, after washing with PBS, nuclei were counterstained with DAPI (4′,6-diamidino-2-phenylindole; Sigma-Aldrich, St. Louis, MO, USA) for 5 min at room temperature. Coverslips were mounted onto glass slides using an antifade mounting medium and imaged using a Stellaris 5 confocal microscope (Leica Microsystems, GmbH, Wetzlar, Germany). Images were analysed using ImageJ software (Bethesda, MD, USA).

SMILES	Decreased ΔΨm (cell population) [1]	Active caspase 9 (cell population) [2]	Active caspase 3/7 (cell population) [3]	Early apoptotic cells [4]	Late apoptotic cells [4]	Necrotic cells [4]	viability at 24 h, 1 µM [5]	viability at 24 h, 1.5 µM [5]	NF-κB localisation [6]
CCC(CO)NS(=O)(=O)c1ccc(-n2nc(C)c3nc4nnnn4nc32)cc1 (stereo in doubt) [MM119, N-(S)-(1-hydroxy-but-2-yl)-4-[7-methyl-5H-pyrazolo[4,3-e]tetrazolo[1,5-b][1]^,[2]^,[4]triazin-5-yl)]benzenesulfonamide]	64.38 ± 1.90%	51.45 ± 1.63%	57.48 ± 19.68%	1.00 ± 0.28%	18.80 ± 1.35%	2.13 ± 0.62%	90.7%	74.8 ± 1.84%	NF-κB translocates to the cell nucleus
Cn1nnc2c(C(N)=O)ncn2c1=O [TMZ, temozolomide, reference compound]	20.25 ± 9.20%	no significant differences	no significant differences	1.55 ± 0.06%	6.83 ± 0.39%	1.90 ± 0.38%		89.75 ± 0.71%	NF-κB translocates to the cell nucleus
CCC(CO)NS(=O)(=O)c1ccc(-n2nc(C)c3nc4nnnn4nc32)cc1 (stereo in doubt) [MM118, N-(R)-(1-hydroxy-but-2-yl)-4-[7-methyl-5H-pyrazolo[4,3-e]tetrazolo[1,5-b][1]^,[2]^,[4]triazin-5-yl)]benzenesulfonamide]	70.43 ± 1.44%	67.23 ± 1.66%	60.08 ± 2.50%	3.03 ± 0.44%	22.10 ± 6.56%	9.50 ± 2.10%	88.2%	65.5 ± 5.06%	NF-κB translocates to the cell nucleus
